Each structure is given as a SMILES string.

For this assay, the target named is T1, hSERT (Homo sapiens, UniProt P31645).
T1 construct: expressed in transfected cells; host or cells: HEK293 (stably transfected, G418 selection)
T1 sequence (P31645 whole entry): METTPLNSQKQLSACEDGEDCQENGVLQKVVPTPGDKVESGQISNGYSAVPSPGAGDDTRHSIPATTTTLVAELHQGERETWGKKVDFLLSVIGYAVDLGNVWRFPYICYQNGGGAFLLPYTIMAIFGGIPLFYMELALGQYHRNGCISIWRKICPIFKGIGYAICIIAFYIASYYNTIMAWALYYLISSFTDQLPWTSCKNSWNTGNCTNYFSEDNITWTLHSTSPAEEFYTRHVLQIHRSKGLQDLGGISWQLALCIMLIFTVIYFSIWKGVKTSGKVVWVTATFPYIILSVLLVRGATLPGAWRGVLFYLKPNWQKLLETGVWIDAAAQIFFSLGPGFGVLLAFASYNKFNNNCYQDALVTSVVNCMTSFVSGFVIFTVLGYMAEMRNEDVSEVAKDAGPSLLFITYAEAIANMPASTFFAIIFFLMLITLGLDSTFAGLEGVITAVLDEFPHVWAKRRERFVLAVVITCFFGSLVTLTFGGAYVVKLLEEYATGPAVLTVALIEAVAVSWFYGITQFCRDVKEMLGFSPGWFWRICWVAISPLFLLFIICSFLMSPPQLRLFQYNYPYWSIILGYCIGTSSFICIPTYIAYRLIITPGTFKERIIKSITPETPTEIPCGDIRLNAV
Put plainly: hSERT neurotransmitter uptake assay. It is filed as cell-based. Particulars: serotonin reuptake inhibition, HEK293-hSERT cells; read-out: SERT pIC50 (converted). As for the experimental part: Neurotransmitter uptake assays were used to measure inhibition of ^3H-serotonin (^3H-5-HT) uptake into cells expressing hSERT in order to determine the pIC50 values of test compounds at the transporter, similar to the procedures described in Tsuruda et al. (2010) Journal of Pharmacological and Toxicological Methods 61(2):192-204.
HEK293 cells stably-transfected with human recombinant SERT (HEK293-hSERT) were grown in DMEM medium supplemented with 10% dialyzed fetal bovine serum, 100 μg/ml penicillin, 100 μg/ml streptomycin, 2 mM L-glutamine, and 250 μg/ml of the aminoglycoside antibiotic G418. Cells were incubated in a 5% CO2, humidified incubator at 37° C.
The neurotransmitter uptake assay was performed in a 96-well assay plate in a total volume of 100 μL assay buffer containing HEK293-hSERT cells (7500-10,000 cells/well; plated ˜2 hours prior to assay initiation. Neurotransmitter Transporter Uptake Assay dye (0.5 μM), and eleven different concentrations of compound ranging from 10 μM to […] was used. Non-specific uptake was determined in the presence of indatraline (2.5 μM). The final assay buffer was 12.5 mM Tris-HCl, 5 mM HEPES, 3 mM NaHCO3, 0.3 mM KH2PO4, 0.25 mM Na2HPO4, 130 mM NaCl, 5 mM KCl, 1 mM CaCl2, 0.4 mM MgCl2, 0.3 mM MgSO4, 4 mM D-glucose, 0.025% BSA, 0.1 mM ascorbic acid, pH 7.4.
In pre-incubation studies, test compound was added to cells for 30 minutes at 37° C. prior to the addition of fluorescent substrate. For determination of inhibitory potency, a 10-30 minute endpoint substrate accumulation was determined by fluorescence spectroscopy using a Safire (Tecan Group Ltd., Minnendorf, Switzerland) and analysis was performed as described in Tsuruda et al., supra. For real-time measurements, compounds were either preincubated (as above) or mixed with substrate prior to addition, and kinetic measurements, relative fluorescence units (RFU integrated over 0.5 ms), were made using a cycle time of 1 min.
On to `CS(=O)(=O)C[C@@H](Oc1ccc(Cl)nc1)[C@H]1CCNC1` [Example 6-3, 2-Chloro-5-((S)-2-methanesulfonyl-1-(S)-pyrrolidin-3-ylethoxy)pyridine], for which the IC50 was no more than 100 nM.

`CS(=O)(=O)C[C@@H](Oc1ccc(C(F)(F)F)nc1)[C@@H]1CCNC1` [Example 5]: the IC50 is no more than 100 nM.

For `CS(=O)(=O)C[C@H](Oc1ccc(Cl)c(C#N)c1)[C@H]1CCNC1` (stereo in doubt) [Example 2-24, 2-Chloro-5-((S)-2-methanesulfonyl-1-(R)-pyrrolidin-3-ylethoxy)benzonitrile], the IC50 was no more than 10 nM.

Regarding `CS(=O)(=O)C[C@@H](Oc1ccc(Cl)cn1)[C@H]1CCNC1` [Example 4-1, 5-Chloro-2-((S)-2-methanesulfonyl-1-(S)-pyrrolidin-3-ylethoxy)pyridine], the IC50 was no more than 100 nM.

On to `O=S(=O)(CCC(Oc1ccc(C(F)(F)F)cc1)[C@H]1CCNC1)c1ccccc1` (stereo partly drawn) [Example 7, (S)-3-[3-Benzenesulfonyl-1-(4-trifluoromethylphenoxy)propyl]pyrrolidine], for which the IC50 is no more than 10 nM.

With `CS(=O)(=O)C[C@@H](Oc1ccc(Cl)c(C#N)c1)[C@H]1CCNC1` [Example 2-22, 2-Chloro-5-((S)-2-methanesulfonyl-1-(S)-pyrrolidin-3-ylethoxy)benzonitrile], the IC50 is no more than 10 nM.

Turning to `O=S(=O)(C[C@@H](Oc1ccc(C(F)(F)F)cc1)[C@H]1CCNC1)c1ccccc1` [Example 2-17, (S)-3-[(S)-2-Benzenesulfonyl-1-(4-trifluoromethylphenoxy)ethyl]pyrrolidine], the IC50 is no more than 10 nM.

For the molecule `CS(=O)(=O)C[C@@H](Oc1ccc(OC(F)(F)F)cc1)[C@H]1CCNC1` [Example 2-9, (S)-3-[(S)-2-Methanesulfonyl-1-(4-trifluoromethoxyphenoxy)ethyl]pyrrolidine], the IC50 was no more than 100 nM.

Consider `CS(=O)(=O)C[C@H](Oc1ccc(Cl)cc1)[C@H]1CCNC1` [Example 2-4, (S)-3-[(R)-1-(4-Chlorophenoxy)-2-methanesulfonylethyl]pyrrolidine], for which the IC50 was no more than 100 nM.

For the molecule `CS(=O)(=O)C[C@@H](Oc1ccc(Cl)c(C#N)c1)[C@@H]1CCNC1` (stereo in doubt) [Example 2-23, 2-Chloro-5-((R)-2-methanesulfonyl-1-(S)-pyrrolidin-3-ylethoxy)benzonitrile], the IC50 was no more than 100 nM.

`O=S(=O)(C[C@@H](Oc1ccc(C(F)(F)F)cc1)[C@H]1CCNC1)c1ccncc1` [Example 2-19, 4-[(S)-2-(S)-Pyrrolidin-3-yl-2-(4-trifluoromethylphenoxy)ethanesulfonyl]pyridine]: the IC50 was no more than 100 nM.

Consider `COc1cc([N+](=O)[O-])ccc1O[C@@H](CS(C)(=O)=O)[C@H]1CCNC1` [Example 2-25, (S)-3-[(R)-2-Methanesulfonyl-1-(2-methoxy-4-nitrophenoxy)ethyl]pyrrolidine], for which the IC50 is no more than 100 nM.

In the case of `COc1cc([N+](=O)[O-])ccc1O[C@H](CS(C)(=O)=O)[C@@H]1CCNC1` [Example 2-26, (R)-3-[(S)-2-Methanesulfonyl-1-(2-methoxy-4-nitrophenoxy)ethyl]pyrrolidine], the IC50 was no more than 100 nM.

As for `CS(=O)(=O)C[C@H](Oc1ccc([N+](=O)[O-])cc1)[C@H]1CCNC1` [Example 2-6, (S)-3-[(R)-2-Methanesulfonyl-1-(4-nitro-phenoxy)ethyl]pyrrolidine], the IC50 is no more than 100 nM.

In the case of `CS(=O)(=O)C[C@@H](Oc1ccc(C(F)(F)F)nc1)[C@@H]1CCNC1` (stereo in doubt) [Example 6-1, 5-((R)-2-Methanesulfonyl-1-(S)-pyrrolidin-3-ylethoxy)-2-trifluoromethylpyridine], the IC50 is no more than 100 nM.

As for `CS(=O)(=O)C[C@H](Oc1ccc(C(F)(F)F)cc1)[C@H]1CCNC1` [Example 2-1, (S)-3-[(R)-2-Methanesulfonyl-1-(4-trifluoromethylphenoxy)ethyl]pyrrolidine], the IC50 is no more than 10 nM.

Regarding `CS(=O)(=O)C[C@H](Oc1ccc(Cl)cn1)[C@H]1CCNC1` (stereo in doubt) [Example 4-2, 5-Chloro-2-((S)-2-methanesulfonyl-1-(R)-pyrrolidin-3-ylethoxy)pyridine], the IC50 is no more than 100 nM.

Consider `CS(=O)(=O)CCC(Oc1ccc(C(F)(F)F)cc1)[C@@H]1CCNC1` (single isomer, unassigned) [Example 8-1], for which the IC50 was no more than 100 nM.

Regarding `CC(=O)Nc1ccc(S(=O)(=O)C[C@@H](Oc2ccc(C(F)(F)F)cc2)[C@H]2CCNC2)cc1` [Example 2-18, N-{4-[(S)-2-(S)-Pyrrolidin-3-yl-2-(4-trifluoromethylphenoxy)ethanesulfonyl]-phenyl}-acetamide], the IC50 is no more than 10 nM.

In the case of `CS(=O)(=O)C[C@@H](Oc1ccc(C(F)(F)F)cc1)[C@@H]1CCNC1` [Example 2-3, (R)-3-[(S)-2-Methanesulfonyl-1-(4-trifluoromethylphenoxy)ethyl]pyrrolidine], the IC50 was no more than 10 nM.

Turning to `CS(=O)(=O)CCC(Oc1ccc(C(F)(F)F)cc1)[C@H]1CCNC1` (single isomer, unassigned) [Example 8-3], the IC50 is no more than 100 nM.

For the molecule `CCS(=O)(=O)C[C@@H](Oc1ccc(C(F)(F)F)cc1)[C@H]1CCNC1` [Example 2-12, (S)-3-[(S)-2-Ethanesulfonyl-1-(4-trifluoromethyl-phenoxy)ethyl]pyrrolidine], the IC50 is no more than 10 nM.

In the case of `CS(=O)(=O)C[C@H](Oc1ccc(Cl)nc1)[C@H]1CCNC1` (stereo in doubt) [Example 6-4, 2-Chloro-5-((S)-2-methanesulfonyl-1-(R)-pyrrolidin-3-ylethoxy)pyridine], the IC50 was no more than 100 nM.

Consider `CS(=O)(=O)C[C@@H](Oc1ccc(OC(F)(F)F)cc1)[C@@H]1CCNC1` [Example 2-11, (R)-3-[(S)-2-Methanesulfonyl-1-(4-trifluoromethoxyphenoxy)ethyl]pyrrolidine], for which the IC50 is no more than 10 nM.

On to `COc1cc([N+](=O)[O-])ccc1O[C@@H](CS(C)(=O)=O)[C@@H]1CCNC1` [Example 2-27, (R)-3-[(R)-2-Methanesulfonyl-1-(2-methoxy-4-nitrophenoxy)ethyl]pyrrolidine], for which the IC50 was no more than 100 nM.

Turning to `O=S(=O)(CCO)C[C@@H](Oc1ccc(C(F)(F)F)cc1)[C@H]1CCNC1` [Example 2-15, 2-[(S)-2-(S)-Pyrrolidin-3-yl-2-(4-trifluoromethylphenoxy)ethanesulfonyl]ethanol], the IC50 is no more than 10 nM.

With `CC(C)S(=O)(=O)C[C@@H](Oc1ccc(C(F)(F)F)cc1)[C@H]1CCNC1` [Example 2-13, (S)-3-[(S)-2-(Propane-2-sulfonyl)-1-(4-trifluoromethylphenoxy)ethyl]pyrrolidine], the IC50 was no more than 10 nM.

As for `CS(=O)(=O)C[C@H](Oc1ccc(C(F)(F)F)c(C#N)c1)[C@H]1CCNC1` (stereo in doubt) [Example 2-21, 5-((S)-2-Methanesulfonyl-1-(R)-pyrrolidin-3-ylethoxy)-2-trifluoromethyl-benzonitrile], the IC50 is no more than 10 nM.

Turning to `CS(=O)(=O)C[C@@H](Oc1ccc(C(F)(F)F)cn1)[C@H]1CCNC1` [Example 4-3, 2-((S)-2-Methanesulfonyl-1-(S)-pyrrolidin-3-yl-ethoxy)-5-trifluoromethyl-pyridine], the IC50 is no more than 10 nM.

As for `CC(C)S(=O)(=O)CCC(Oc1ccc(C(F)(F)F)cc1)[C@H]1CCNC1` (single isomer, unassigned) [Example 8-5], the IC50 is no more than 10 nM.

Consider `CS(=O)(=O)C[C@@H](Oc1ccc(C(F)(F)F)c(C#N)c1)[C@H]1CCNC1` [Example 2-20, 5-((S)-2-Methanesulfonyl-1-(S)-pyrrolidin-3-ylethoxy)-2-trifluoromethyl-benzonitrile], for which the IC50 is no more than 100 nM.

As to `CC(=O)NCCS(=O)(=O)C[C@@H](Oc1ccc(C(F)(F)F)cc1)[C@H]1CCNC1` [Example 2-14, N-{2-[(S)-2-(S)-Pyrrolidin-3-yl-2-(4-trifluoromethylphenoxy)ethanesulfonyl]-ethyl}-acetamide], the IC50 is no more than 10 nM.

As for `CS(=O)(=O)C[C@@H](Oc1ccc(C(F)(F)F)nc1)[C@H]1CCNC1` [Example 6-2, 5-((S)-2-Methanesulfonyl-1-(S)-pyrrolidin-3-ylethoxy)-2-trifluoromethylpyridine], the IC50 was no more than 100 nM.

For `Cc1cc(Cl)ccc1O[C@@H](CS(C)(=O)=O)[C@H]1CCNC1` [Example 2-28, (S)-3-[(R)-1-(4-Chloro-2-methylphenoxy)-2-methanesulfonylethyl]pyrrolidine], the IC50 was no more than 10 nM.

`COC(=O)CS(=O)(=O)C[C@@H](Oc1ccc(C(F)(F)F)cc1)[C@H]1CCNC1` [Example 2-16, [(S)-(S)-Pyrrolidin-3-yl-(4-trifluoromethylphenoxy)ethanesulfonyl]acetic acid methyl ester]: the IC50 was no more than 10 nM.

Values taken from patent publication US9000191B2, “Serotonin reuptake inhibitors” (Theravance Biopharma R&D IP, LLC, priority 2010, dated 2015).
